{
  "source": "patent EP4755881A1",
  "about": "(Wuhan Createrna Science and Technology Co., Ltd., priority 2023, dated 2025)",
  "key": {"[1]": {"target": "T1, LPAR1 receptor (Homo sapiens, UniProt Q92633)", "T1 construct": "expressed in transfected cells", "T1 sequence (Q92633 whole entry)": "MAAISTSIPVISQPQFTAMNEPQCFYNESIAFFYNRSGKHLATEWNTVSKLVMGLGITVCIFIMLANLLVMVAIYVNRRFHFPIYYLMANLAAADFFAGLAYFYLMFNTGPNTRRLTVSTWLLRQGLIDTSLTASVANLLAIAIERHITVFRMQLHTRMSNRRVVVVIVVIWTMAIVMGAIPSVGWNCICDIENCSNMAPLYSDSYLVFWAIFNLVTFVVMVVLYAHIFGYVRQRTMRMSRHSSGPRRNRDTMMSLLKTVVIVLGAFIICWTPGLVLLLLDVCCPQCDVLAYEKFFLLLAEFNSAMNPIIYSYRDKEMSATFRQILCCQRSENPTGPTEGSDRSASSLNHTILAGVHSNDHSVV", "test": "LPAR1 in vitro biological activity evaluation 2: HTRF cAMP kit (LANCE Ultra cAMP Kit) assay in CHO stable transfected cell line expressing the LPAR1 receptor", "format": "cell-based", "description": "The inhibitory effects of the compounds of the present disclosure on the LPAR1 receptor were determined using a Chinese hamster ovary (CHO) stable transfected cell line expressing the LPAR1 receptor, through the HTRF cAMP kit (LANCE® Ultra cAMP Kit).\nThe CHO cell line expressing the LPAR1 receptor was cultured in F-12 medium (Gibco, 117650054) containing 10% fetal bovine serum (FBS, Avantor, 76294-180) and 0.2 mg/mL hygromycin B (Solarbio, H8080-1g) at 37°C with 5% CO2. Cell passage, recovery, and cryopreservation were performed according to conventional methods. The stable transfected cell line was cultured to 80% confluence, digested with trypsin to collect cells, counted, and then seeded at 5 µL/well in a 384-well plate (500 cells/5 µL). The 1× Stimulation Buffer was prepared according to the instructions of the kit (LANCE® Ultra cAMP Kit). 1 µL of the test compound solution (diluted to 10× with 1× Stimulation Buffer) was added to the corresponding experimental wells, followed by centrifugation and incubation at 37°C for 10 minutes. […] 5 µL/well of Eu-cAMP (diluted with Detection buffer) was added to the corresponding experimental wells. 5 µL/well of ULight™-anti-cAMP antibody (diluted with Detection buffer) was added to the corresponding experimental wells, followed by centrifugation and incubation at room temperature for 1 hour. After the incubation was completed, the readings at 665 nm and 620 nm under 330 nm excitation were detected using the HTS high-throughput drug screening multifunctional microplate reader (BMG, PHERAstar FSX). The IC50 values were calculated by fitting nonlinear regression (dose response - variable slope) using GraphPad Prism software."}, "[2]": {"target": "hLPAR1 (human lysophosphatidic acid receptor 1, Accession No.: NM_001401.4) (Homo sapiens, UniProt Q92633)", "sequence (Q92633 whole entry)": "as above", "test": "cell-based", "settings": "FLIPR method, CHO-K1 cells overexpressing hLPAR1", "procedure,_shortened": "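Antagonist mode in CHO-K1 cells stably expressing hLPAR1, Fluo-4 loaded; compound preincubated 30 min at room temperature before 1 µM oleoyl-LPA (final) challenge.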"}, "[3]": {"test": "Pharmacokinetic study in rats (oral gavage and tail vein injection, plasma LC-MS/MS)", "format": "in vivo", "settings": "rat; for Cmax: read-out: Cmax", "procedure,_shortened": "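Plasma from SD rats is taken at 0.167–24 h after oral gavage or at 0.033–24 h after intravenous tail-vein dosing and assayed by LC-MS/MS. Oral animals are fasted overnight and dosed in DMSO/ethanol/PEG400/saline; IV animals receive ethanol/water/PEG400. PK parameters come from a non-compartmental model.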"}, "[4]": {"settings": "Table 2, read-out: LPAR1 inhibitory activity IC50"}, "[5]": {"settings": "Table 1, read-out: LPAR1 inhibitory activity IC50"}, "[6]": {"settings": "LPAR1 inhibitory activity IC50, Table 1"}},
  "note": "Where two headings read alike, the source gives them in different places.",
  "data": [
    {"smiles": "CCC[C@@H](C)OC(=O)Nc1c(-c2ccc(C#C[C@@H]3C[C@H]3C(=O)O)c(C)n2)nnn1C", "note": "(mixture of isomers) [224-B, trans-2-((2-methyl-6-(1-methyl-5-(((((R)-pentan-2-yl)oxy)carbonyl)amino)-1H-1,2,3-triazol-4-yl)pyridin-3-yl)ethynyl)cyclopropane-1-carboxylic acid]", "values": [
      {"measurement": "IC50", "setting": "[1]; [4]", "value": 0.127, "unit": "µM"},
      {"measurement": "IC50", "setting": "[2]; [5]", "value": 0.07, "unit": "µM"}
    ]},
    {"smiles": "CCC[C@@H](C)OC(=O)Nc1c(-c2ccc(C#CC3(CC(=O)O)CC(OC)C3)c(C)n2)nnn1C", "note": "(stereo partly drawn) [compound 278]", "values": [
      {"measurement": "IC50", "setting": "[1]; [4]", "value": 0.0344, "unit": "µM"},
      {"measurement": "IC50", "setting": "[2]; [5]", "value": 0.0381, "unit": "µM"},
      {"measurement": "half-life", "setting": "[3]; male, SD, iv, 1 mg/kg", "value": 5.24, "unit": "h"},
      {"measurement": "half-life", "setting": "[3]; male, SD, po, 1 mg/kg", "value": 4.5, "unit": "h"},
      {"measurement": "AUC(0-t)", "setting": "[3]; male, SD rats, Iv, 1 mg/kg", "value": "5000 to 10000", "unit": "ng·h/mL"},
      {"measurement": "Cmax", "setting": "[3]; male, SD rats, Iv, 1 mg/kg", "value": "5000 to 8000", "unit": "ng/mL"},
      {"measurement": "AUC(0-t)", "setting": "[3]; male, SD rats, Po, 1 mg/kg", "value": "5000 to 10000", "unit": "ng·h/mL"},
      {"measurement": "Cmax", "setting": "[3]; male, SD rats, Po, 1 mg/kg", "value": "200 to 800", "unit": "ng/mL"}
    ]},
    {"smiles": "Cc1nc(-c2nnn(C)c2NC(=O)O[C@H](C)CC(C)C)ccc1C#C[C@@H]1CC[C@H]1C(=O)O", "note": "[compound 308]", "values": [
      {"measurement": "IC50", "setting": "[1]; [4]", "value": 0.0932, "unit": "µM"},
      {"measurement": "IC50", "setting": "[2]; [6]", "value": 0.0109, "unit": "µM"}
    ]},
    {"smiles": "CCCC[C@@H](C)OC(=O)Nc1c(-c2ccc(C#CC3(CC(=O)O)CC3)c(C)n2)nnn1C", "note": "[compound 313]", "values": [
      {"measurement": "IC50", "setting": "[1]; [4]", "value": 0.156, "unit": "µM"},
      {"measurement": "IC50", "setting": "[2]; [6]", "value": 0.0161, "unit": "µM"},
      {"measurement": "AUC(0-t)", "setting": "[3]; SD rats, Iv, 1 mg/kg", "value": "3000 to 5000", "unit": "ng·h/mL"},
      {"measurement": "half-life", "setting": "[3]; SD rats, Iv, 1 mg/kg", "value": 5.12, "unit": "h"},
      {"measurement": "Cmax", "setting": "[3]; SD rats, Iv, 1 mg/kg", "value": "800 to 5000", "unit": "ng/mL"},
      {"measurement": "AUC(0-t)", "setting": "[3]; SD rats, Po, 3 mg/kg", "value": "10000 to 20000", "unit": "ng·h/mL"},
      {"measurement": "half-life", "setting": "[3]; SD rats, Po, 3 mg/kg", "value": 5.59, "unit": "h"},
      {"measurement": "Cmax", "setting": "[3]; SD rats, Po, 3 mg/kg", "value": "800 to 5000", "unit": "ng/mL"}
    ]},
    {"smiles": "CCC(F)(F)[C@@H](C)OC(=O)Nc1c(-c2ccc(C#CC3(CC(=O)O)CC(OC)C3)c(C(F)(F)F)n2)nnn1C", "note": "(stereo partly drawn) [compound 463]", "values": [
      {"measurement": "IC50", "setting": "[1]; [4]", "value": 0.0382, "unit": "µM"},
      {"measurement": "AUC(0-t)", "setting": "[3]; SD rats, Iv, 1 mg/kg", "value": "3000 to 5000", "unit": "ng·h/mL"},
      {"measurement": "half-life", "setting": "[3]; SD rats, Iv, 1 mg/kg", "value": 5.44, "unit": "h"},
      {"measurement": "Cmax", "setting": "[3]; SD rats, Iv, 1 mg/kg", "value": "5000 to 8000", "unit": "ng/mL"},
      {"measurement": "AUC(0-t)", "setting": "[3]; SD rats, Po, 1 mg/kg", "value": "5000 to 10000", "unit": "ng·h/mL"},
      {"measurement": "half-life", "setting": "[3]; SD rats, Po, 1 mg/kg", "value": 5.47, "unit": "h"},
      {"measurement": "Cmax", "setting": "[3]; SD rats, Po, 1 mg/kg", "value": "800 to 5000", "unit": "ng/mL"}
    ]},
    {"smiles": "CCC(F)(F)[C@@H](C)OC(=O)Nc1c(-c2ccc(C#CC3(CC(=O)O)CC(OC)C3)c(C)n2)noc1C", "note": "(stereo partly drawn) [compound 468]", "values": [
      {"measurement": "IC50", "setting": "[1]; LPAR1 inhibitory activity IC50, Table 2", "value": 0.0316, "unit": "µM"},
      {"measurement": "AUC(0-t)", "setting": "[3]; SD rats, Iv, 1 mg/kg", "value": "3000 to 5000", "unit": "ng·h/mL"},
      {"measurement": "half-life", "setting": "[3]; SD rats, Iv, 1 mg/kg", "value": 2.35, "unit": "h"},
      {"measurement": "Cmax", "setting": "[3]; SD rats, Iv, 1 mg/kg", "value": "800 to 5000", "unit": "ng/mL"},
      {"measurement": "AUC(0-t)", "setting": "[3]; SD rats, Po, 1 mg/kg", "value": "5000 to 10000", "unit": "ng·h/mL"},
      {"measurement": "half-life", "setting": "[3]; SD rats, Po, 1 mg/kg", "value": 2.77, "unit": "h"},
      {"measurement": "Cmax", "setting": "[3]; SD rats, Po, 1 mg/kg", "value": "200 to 800", "unit": "ng/mL"}
    ]},
    {"smiles": "CCc1nc(-c2noc(C)c2NC(=O)O[C@H](C)C(F)(F)CC)ccc1C#CC1(CC(=O)O)CC(OC)C1", "note": "(stereo partly drawn) [compound 492]", "values": [
      {"measurement": "IC50", "setting": "[1]; [4]", "value": 0.0086, "unit": "µM"},
      {"measurement": "AUC(0-t)", "setting": "[3]; SD rats, Iv, 1 mg/kg", "value": "5000 to 10000", "unit": "ng·h/mL"},
      {"measurement": "half-life", "setting": "[3]; SD rats, Iv, 1 mg/kg", "value": 3.92, "unit": "h"},
      {"measurement": "Cmax", "setting": "[3]; SD rats, Iv, 1 mg/kg", "value": "800 to 5000", "unit": "ng/mL"},
      {"measurement": "AUC(0-t)", "setting": "[3]; SD rats, Po, 1 mg/kg", "value": "5000 to 10000", "unit": "ng·h/mL"},
      {"measurement": "half-life", "setting": "[3]; SD rats, Po, 1 mg/kg", "value": 3.75, "unit": "h"},
      {"measurement": "Cmax", "setting": "[3]; SD rats, Po, 1 mg/kg", "value": "800 to 5000", "unit": "ng/mL"}
    ]},
    {"smiles": "CCC(F)(F)[C@@H](C)OC(=O)Nc1c(C)noc1-c1ccc(C#CC2(CC(=O)O)CC(OC)C2)c(C(F)(F)F)n1", "note": "(stereo partly drawn) [compound 506]", "values": [
      {"measurement": "IC50", "setting": "[1]; [4]", "value": 0.0201, "unit": "µM"},
      {"measurement": "half-life", "setting": "[3]; male, SD, iv, 1 mg/kg", "value": 2.51, "unit": "h"},
      {"measurement": "half-life", "setting": "[3]; male, SD, po, 1 mg/kg", "value": 2.41, "unit": "h"},
      {"measurement": "AUC(0-t)", "setting": "[3]; male, SD rats, Iv, 1 mg/kg", "value": "10000 to 20000", "unit": "ng·h/mL"},
      {"measurement": "Cmax", "setting": "[3]; male, SD rats, Iv, 1 mg/kg", "value": "8000 to 12000", "unit": "ng/mL"},
      {"measurement": "AUC(0-t)", "setting": "[3]; male, SD rats, Po, 1 mg/kg", "value": "10000 to 20000", "unit": "ng·h/mL"},
      {"measurement": "Cmax", "setting": "[3]; male, SD rats, Po, 1 mg/kg", "value": "800 to 5000", "unit": "ng/mL"}
    ]}
  ]
}
